The record followed here is patent US20240246942A1, “KINASE INHIBITORS FOR THE TREATMENT OF NEURODEGENERATIVE DISEASES” (priority 2020, published 2024).

What all share (assay): biochemical
Assay [1] deals with T1, panel of 374 wild-type kinases (Homo sapiens, UniProt P08631).
T1 construct: purchased Reaction Biology Corporation
Conditions: read-out: % Enzyme Activity (relative to DMSO controls), HCK.

Assay [2] addresses T2, panel of 374 wild-type kinases (Homo sapiens, UniProt P32298).
T2 construct: purchased Reaction Biology Corporation
To be noted: read-out: % Enzyme Activity (relative to DMSO controls), GRK4.

Assay [3] addresses T3, panel of 374 wild-type kinases (Homo sapiens, UniProt P42684).
T3 construct: purchased Reaction Biology Corporation
To be noted: read-out: % Enzyme Activity (relative to DMSO controls), ABL2/ARG.

The target of assay [4] is T4, panel of 374 wild-type kinases (Homo sapiens, UniProt Q04912).
T4 construct: purchased Reaction Biology Corporation
T4 sequence (Q04912 25-1400): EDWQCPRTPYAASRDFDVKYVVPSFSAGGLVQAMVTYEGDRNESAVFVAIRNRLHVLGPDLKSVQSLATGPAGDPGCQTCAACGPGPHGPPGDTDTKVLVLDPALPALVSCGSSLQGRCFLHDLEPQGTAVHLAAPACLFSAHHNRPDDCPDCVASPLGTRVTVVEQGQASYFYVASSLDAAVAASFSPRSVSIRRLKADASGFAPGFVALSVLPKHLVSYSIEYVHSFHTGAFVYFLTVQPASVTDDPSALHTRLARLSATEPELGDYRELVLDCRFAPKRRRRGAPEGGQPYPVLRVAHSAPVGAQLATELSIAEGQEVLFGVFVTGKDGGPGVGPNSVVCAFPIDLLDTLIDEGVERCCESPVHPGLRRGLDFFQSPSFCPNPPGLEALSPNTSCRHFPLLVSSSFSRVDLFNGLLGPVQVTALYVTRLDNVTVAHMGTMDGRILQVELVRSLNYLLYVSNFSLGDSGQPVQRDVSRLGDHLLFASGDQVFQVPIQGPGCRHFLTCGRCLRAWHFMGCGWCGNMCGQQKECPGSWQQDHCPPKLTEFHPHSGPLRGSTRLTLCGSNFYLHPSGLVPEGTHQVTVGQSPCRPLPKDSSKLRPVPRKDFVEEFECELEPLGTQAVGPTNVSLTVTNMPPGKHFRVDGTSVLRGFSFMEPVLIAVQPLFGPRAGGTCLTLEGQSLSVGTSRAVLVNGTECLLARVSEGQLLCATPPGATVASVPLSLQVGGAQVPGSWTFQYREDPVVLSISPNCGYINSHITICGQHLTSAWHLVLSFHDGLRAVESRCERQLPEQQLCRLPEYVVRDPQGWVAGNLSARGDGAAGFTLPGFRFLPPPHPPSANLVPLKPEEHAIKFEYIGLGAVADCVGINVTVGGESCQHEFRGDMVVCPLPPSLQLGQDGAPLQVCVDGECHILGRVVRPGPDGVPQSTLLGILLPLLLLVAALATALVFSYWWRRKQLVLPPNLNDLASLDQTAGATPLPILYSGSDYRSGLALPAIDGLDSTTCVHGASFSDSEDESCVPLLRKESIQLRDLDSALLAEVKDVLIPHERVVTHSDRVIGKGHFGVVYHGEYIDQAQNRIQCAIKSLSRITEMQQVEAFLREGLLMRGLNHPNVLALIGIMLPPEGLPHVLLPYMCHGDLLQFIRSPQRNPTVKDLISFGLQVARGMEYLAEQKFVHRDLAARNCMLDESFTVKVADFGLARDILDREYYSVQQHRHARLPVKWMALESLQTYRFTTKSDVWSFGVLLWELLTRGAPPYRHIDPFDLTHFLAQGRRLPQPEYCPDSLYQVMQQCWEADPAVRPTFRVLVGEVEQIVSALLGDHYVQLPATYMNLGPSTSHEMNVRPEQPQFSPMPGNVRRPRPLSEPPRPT
To be noted: read-out: % Enzyme Activity (relative to DMSO controls), kinase RON/MST1R.

Assay [5] has as its target T5, panel of 374 wild-type kinases (Homo sapiens, UniProt Q13237).
T5 construct: purchased Reaction Biology Corporation
T5 sequence (Q13237 1-762): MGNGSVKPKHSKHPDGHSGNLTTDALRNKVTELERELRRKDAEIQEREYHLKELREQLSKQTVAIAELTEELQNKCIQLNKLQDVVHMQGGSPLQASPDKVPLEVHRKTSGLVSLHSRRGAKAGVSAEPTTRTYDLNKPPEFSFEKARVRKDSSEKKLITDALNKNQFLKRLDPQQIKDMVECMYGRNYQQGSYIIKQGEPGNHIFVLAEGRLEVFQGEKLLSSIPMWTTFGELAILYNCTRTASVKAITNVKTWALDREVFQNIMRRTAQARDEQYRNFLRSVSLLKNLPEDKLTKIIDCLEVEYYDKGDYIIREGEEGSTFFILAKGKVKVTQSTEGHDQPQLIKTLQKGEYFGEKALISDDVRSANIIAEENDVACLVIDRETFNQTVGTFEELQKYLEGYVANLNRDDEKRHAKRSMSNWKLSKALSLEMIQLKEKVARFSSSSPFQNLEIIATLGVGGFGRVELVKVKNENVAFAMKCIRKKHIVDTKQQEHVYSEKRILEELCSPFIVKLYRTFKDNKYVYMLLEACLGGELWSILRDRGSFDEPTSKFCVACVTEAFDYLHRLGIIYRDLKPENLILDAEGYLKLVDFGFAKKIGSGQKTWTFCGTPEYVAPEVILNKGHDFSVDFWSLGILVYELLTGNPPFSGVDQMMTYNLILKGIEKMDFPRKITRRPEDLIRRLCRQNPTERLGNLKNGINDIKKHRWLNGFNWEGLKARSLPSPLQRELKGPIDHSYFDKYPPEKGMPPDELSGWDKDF
To be noted: read-out: % Enzyme Activity (relative to DMSO controls), kinase PKG2/PRKG2.

In assay [6] the target is T6, panel of 374 wild-type kinases (Homo sapiens, UniProt Q6P2M8).
T6 construct: purchased Reaction Biology Corporation
T6 sequence (Q6P2M8 whole entry): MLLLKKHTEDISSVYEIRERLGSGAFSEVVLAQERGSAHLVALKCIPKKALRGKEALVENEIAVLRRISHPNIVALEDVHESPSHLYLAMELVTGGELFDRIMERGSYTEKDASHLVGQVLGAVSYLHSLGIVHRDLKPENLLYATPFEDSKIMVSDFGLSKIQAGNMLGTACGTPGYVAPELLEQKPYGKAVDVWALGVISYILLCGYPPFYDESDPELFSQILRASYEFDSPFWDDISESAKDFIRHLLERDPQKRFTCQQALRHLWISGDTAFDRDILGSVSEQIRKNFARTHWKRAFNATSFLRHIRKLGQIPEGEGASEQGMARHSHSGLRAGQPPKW
Conditions: read-out: % Enzyme Activity (relative to DMSO controls), CAMK1b.

The target in assay [7] is T7, panel of 374 wild-type kinases (Homo sapiens, UniProt Q6VAB6).
T7 construct: purchased Reaction Biology Corporation
T7 sequence (Q6VAB6 1-950): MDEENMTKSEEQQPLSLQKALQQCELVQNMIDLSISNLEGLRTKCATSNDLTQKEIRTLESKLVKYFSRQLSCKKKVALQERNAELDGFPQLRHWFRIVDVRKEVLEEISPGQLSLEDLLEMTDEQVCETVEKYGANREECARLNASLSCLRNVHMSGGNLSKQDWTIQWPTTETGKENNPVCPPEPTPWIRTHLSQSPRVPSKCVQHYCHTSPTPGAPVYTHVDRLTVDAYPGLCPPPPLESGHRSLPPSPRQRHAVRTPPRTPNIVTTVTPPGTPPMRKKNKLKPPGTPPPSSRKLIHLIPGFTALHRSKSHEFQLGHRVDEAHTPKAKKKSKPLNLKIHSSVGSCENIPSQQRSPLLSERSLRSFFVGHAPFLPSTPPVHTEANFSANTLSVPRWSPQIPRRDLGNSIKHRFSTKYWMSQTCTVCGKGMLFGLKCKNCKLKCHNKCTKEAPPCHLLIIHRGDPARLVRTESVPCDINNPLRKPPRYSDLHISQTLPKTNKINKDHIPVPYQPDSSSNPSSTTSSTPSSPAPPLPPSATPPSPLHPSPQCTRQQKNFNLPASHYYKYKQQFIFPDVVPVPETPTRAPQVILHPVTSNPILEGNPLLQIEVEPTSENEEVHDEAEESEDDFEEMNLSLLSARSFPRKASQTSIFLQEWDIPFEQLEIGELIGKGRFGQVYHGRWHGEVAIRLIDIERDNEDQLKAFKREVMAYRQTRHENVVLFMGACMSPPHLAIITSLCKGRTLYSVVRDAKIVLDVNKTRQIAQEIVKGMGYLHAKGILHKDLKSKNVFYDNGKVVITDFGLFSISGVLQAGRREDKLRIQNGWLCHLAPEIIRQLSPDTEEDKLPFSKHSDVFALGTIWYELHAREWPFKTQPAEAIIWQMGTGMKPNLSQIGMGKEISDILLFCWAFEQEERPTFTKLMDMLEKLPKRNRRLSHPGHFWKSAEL
To be noted: read-out: % Enzyme Activity (relative to DMSO controls), KSR2.

Assay [8] deals with T8, panel of 374 wild-type kinases (Homo sapiens, UniProt Q8N752).
T8 construct: purchased Reaction Biology Corporation
T8 sequence (Q8N752 1-337): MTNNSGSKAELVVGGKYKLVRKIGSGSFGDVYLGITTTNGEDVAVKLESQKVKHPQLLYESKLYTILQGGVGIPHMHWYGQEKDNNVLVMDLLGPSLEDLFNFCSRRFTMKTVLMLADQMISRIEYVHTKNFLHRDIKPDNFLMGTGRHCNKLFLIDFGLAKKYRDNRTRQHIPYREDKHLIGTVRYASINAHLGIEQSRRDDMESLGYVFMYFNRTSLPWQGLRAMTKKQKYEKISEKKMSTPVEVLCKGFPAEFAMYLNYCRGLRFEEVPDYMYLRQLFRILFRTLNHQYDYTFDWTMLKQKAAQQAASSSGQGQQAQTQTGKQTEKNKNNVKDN
Conditions: read-out: % Enzyme Activity (relative to DMSO controls), CK1a1L.

The target of assay [9] is T9, panel of 374 wild-type kinases (Homo sapiens, UniProt Q9P0L2).
T9 construct: purchased Reaction Biology Corporation
T9 sequence (Q9P0L2 whole entry): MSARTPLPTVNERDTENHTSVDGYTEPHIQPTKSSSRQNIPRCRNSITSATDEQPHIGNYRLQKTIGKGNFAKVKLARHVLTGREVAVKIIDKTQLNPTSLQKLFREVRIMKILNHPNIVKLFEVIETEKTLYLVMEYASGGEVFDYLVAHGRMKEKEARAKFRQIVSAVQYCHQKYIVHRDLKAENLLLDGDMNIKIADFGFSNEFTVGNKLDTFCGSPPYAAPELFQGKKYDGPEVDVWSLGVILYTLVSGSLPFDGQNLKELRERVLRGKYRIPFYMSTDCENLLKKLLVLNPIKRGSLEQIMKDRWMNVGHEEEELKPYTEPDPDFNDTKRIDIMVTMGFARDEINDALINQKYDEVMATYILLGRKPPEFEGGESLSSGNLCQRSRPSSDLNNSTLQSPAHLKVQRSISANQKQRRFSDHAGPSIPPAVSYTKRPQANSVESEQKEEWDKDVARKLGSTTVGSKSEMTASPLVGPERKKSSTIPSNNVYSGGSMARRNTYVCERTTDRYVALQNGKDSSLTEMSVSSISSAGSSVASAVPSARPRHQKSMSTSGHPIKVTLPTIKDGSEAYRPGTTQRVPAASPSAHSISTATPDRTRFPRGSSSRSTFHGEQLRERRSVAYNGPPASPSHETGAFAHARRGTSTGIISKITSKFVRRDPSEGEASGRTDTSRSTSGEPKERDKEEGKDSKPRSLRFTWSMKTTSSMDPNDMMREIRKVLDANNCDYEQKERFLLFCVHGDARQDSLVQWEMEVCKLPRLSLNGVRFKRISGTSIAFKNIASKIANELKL
Conditions: read-out: % Enzyme Activity (relative to DMSO controls), MARK1.

The target of assay [10] is T10, panel of 374 wild-type kinases (Homo sapiens, UniProt Q9UM73).
T10 construct: purchased Reaction Biology Corporation
Conditions: read-out: % Enzyme Activity (relative to DMSO controls), ALK.

T1 sequence (P08631 whole entry): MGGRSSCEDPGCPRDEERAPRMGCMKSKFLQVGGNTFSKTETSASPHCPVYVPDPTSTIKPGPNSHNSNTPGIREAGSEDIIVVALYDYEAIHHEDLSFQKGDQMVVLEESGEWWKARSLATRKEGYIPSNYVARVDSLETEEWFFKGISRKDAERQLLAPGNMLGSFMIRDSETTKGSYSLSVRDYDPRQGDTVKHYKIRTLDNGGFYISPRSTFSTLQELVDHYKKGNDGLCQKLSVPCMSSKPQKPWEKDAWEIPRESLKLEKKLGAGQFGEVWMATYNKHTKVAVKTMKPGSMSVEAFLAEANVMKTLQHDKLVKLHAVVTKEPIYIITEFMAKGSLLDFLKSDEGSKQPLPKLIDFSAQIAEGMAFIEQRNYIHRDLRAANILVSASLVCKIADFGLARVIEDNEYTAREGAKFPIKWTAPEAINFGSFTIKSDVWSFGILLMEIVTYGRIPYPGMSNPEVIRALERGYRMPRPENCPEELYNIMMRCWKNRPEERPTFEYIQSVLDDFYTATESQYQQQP
T2 sequence (P32298 whole entry): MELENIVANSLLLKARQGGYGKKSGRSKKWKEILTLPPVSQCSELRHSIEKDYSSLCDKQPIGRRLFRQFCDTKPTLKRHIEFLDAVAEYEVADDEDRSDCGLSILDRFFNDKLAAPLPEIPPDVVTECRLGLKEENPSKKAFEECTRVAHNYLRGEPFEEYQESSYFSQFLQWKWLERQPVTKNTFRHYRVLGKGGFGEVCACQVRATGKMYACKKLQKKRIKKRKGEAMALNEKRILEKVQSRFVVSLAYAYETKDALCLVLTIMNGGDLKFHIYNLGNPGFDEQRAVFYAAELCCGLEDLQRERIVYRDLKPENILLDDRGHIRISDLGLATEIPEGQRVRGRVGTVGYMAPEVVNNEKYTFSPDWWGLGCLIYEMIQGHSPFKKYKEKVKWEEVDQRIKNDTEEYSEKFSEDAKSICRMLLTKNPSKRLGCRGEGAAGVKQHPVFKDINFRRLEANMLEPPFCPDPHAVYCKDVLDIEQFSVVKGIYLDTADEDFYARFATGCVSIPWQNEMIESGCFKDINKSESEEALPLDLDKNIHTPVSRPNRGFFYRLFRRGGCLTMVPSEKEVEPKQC
T3 sequence (P42684 whole entry): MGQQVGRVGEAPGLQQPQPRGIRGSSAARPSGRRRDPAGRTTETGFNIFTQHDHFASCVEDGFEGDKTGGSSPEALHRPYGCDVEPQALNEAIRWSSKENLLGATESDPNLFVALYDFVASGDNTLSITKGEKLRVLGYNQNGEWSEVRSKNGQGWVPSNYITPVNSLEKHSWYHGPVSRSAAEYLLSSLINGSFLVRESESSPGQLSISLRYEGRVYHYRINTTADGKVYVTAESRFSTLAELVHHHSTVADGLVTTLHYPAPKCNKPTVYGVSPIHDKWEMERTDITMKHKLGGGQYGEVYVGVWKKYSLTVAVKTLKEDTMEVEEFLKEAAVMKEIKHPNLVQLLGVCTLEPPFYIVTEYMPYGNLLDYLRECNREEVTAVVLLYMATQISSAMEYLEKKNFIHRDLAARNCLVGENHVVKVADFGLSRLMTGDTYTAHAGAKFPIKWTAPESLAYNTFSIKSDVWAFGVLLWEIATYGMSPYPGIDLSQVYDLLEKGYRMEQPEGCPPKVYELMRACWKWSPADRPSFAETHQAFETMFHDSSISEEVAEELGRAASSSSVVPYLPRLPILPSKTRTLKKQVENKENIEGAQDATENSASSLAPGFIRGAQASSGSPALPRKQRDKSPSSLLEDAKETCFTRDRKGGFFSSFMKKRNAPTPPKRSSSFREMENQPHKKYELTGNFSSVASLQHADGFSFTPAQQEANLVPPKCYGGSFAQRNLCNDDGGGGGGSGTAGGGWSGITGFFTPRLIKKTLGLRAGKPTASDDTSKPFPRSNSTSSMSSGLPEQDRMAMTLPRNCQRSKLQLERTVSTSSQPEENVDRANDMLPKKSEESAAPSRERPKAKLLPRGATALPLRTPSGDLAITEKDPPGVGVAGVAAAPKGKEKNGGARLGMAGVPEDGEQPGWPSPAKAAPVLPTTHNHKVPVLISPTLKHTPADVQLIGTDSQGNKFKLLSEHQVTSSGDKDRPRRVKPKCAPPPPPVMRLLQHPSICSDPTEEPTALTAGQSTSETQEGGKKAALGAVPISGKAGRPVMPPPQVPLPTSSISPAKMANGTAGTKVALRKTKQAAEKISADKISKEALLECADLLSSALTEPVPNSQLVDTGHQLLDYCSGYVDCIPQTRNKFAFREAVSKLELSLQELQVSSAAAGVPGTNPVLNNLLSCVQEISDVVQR

On to `O=C(Nc1cnn(-c2csc(C(=O)NC3COC3)c2)c1)Nc1ccccc1Cl` [Compound 17, 4-(4-(3-(2-chlorophenyl)ureido)-1H-pyrazol-1-yl)-N-(oxetan-3-yl)thiophene-2-carboxamide], for which the remaining activity at 5 µM in assay [1] turned out to be 94%; in assay [2], 97%; in assay [3], 92.7%; in assay [4] it was 108%; in assay [5], 101%; in assay [6], 96.3%. Also, the remaining activity at 5 µM in assay [7] was found to be 107%; in [8] it was 109%; in assay [9], 96.3%; in [10], 101%.
`O=C(Nc1cnn(-c2csc(C(=O)NC3COC3)c2)c1)Nc1c(F)cccc1Cl` [Compound 25, 4-(4-(3-(2-chloro-6-fluorophenyl)ureido)-1H-pyrazol-1-yl)-N-(oxetan-3-yl)thiophene-2-carboxamide]: the remaining activity at 5 µM was 91.3% in assay [1]; 93.6% in [2]; 88.7% in [3]; 100% in assay [4]; 101% in assay [5]; 102% in assay [6]. The remaining activity at 5 µM came to 92.7% in assay [7], 81.1% in [8], 108% in [9] and 89.2% in assay [10].
Turning to `Cc1sc(C(=O)NC2COC2)cc1-n1cc(NC(=O)Nc2c(F)cccc2Cl)cn1` [Compound 27, 4-(4-(3-(2-chloro-6-fluorophenyl)ureido)-1H-pyrazol-1-yl)-5-methyl-N-(oxetan-3-yl)thiophene-2-carboxamide], the remaining activity at 10 µM in [1] (10 uM) amounted to 95%; in [2] (10 uM), 113%; in assay [3] (10 uM), 123%; in assay [4] (10 uM), 96.9%; in [5] (10 uM), 100%; in assay [6] (10 uM), 80.1%. Also, the remaining activity at 10 µM stood at 99.2% in assay [7] (10 uM), 105% in [8] (10 uM), 95.3% in [9] (10 uM) and 100% in [10] (10 uM).
